Results published in ChEMBL document CHEMBL5291721, “A preclinical secondary pharmacology resource illuminates target-adverse drug reaction associations of marketed drugs” (Nat Commun, 2023).

Key:
[1] = molecular target: T1, Alpha-2C adrenergic receptor (Homo sapiens, UniProt P18825); assay type: functional
T1 sequence (P18825 whole entry): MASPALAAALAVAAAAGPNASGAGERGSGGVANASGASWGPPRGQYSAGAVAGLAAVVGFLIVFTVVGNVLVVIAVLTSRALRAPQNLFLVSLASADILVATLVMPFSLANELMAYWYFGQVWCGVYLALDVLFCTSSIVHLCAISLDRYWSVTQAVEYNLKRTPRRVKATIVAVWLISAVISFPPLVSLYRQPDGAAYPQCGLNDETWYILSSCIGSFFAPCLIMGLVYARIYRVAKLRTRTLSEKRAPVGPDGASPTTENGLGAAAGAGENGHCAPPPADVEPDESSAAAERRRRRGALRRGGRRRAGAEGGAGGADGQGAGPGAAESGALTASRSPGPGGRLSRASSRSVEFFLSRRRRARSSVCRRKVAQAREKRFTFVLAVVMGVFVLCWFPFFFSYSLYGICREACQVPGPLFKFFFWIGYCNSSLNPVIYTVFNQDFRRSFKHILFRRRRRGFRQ

[2] = molecular target: Kappa-type opioid receptor (Homo sapiens, UniProt P41145)
[3] = molecular target: T2, Gastrin/cholecystokinin type B receptor (Homo sapiens, UniProt P32239)
T2 sequence (P32239 whole entry): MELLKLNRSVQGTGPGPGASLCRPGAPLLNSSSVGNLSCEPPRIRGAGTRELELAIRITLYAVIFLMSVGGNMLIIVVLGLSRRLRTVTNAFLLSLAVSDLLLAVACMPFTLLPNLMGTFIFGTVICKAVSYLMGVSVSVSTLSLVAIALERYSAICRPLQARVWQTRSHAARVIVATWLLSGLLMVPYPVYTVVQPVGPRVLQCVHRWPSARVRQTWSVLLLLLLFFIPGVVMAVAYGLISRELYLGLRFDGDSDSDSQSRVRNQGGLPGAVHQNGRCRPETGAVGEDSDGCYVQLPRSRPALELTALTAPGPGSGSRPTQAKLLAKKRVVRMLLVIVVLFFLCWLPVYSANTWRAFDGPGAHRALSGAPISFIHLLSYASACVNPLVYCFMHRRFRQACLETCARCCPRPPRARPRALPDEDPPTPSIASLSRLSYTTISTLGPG

Cannabinoid receptor 1 = Cannabinoid receptor 1 (Homo sapiens, UniProt P21554); assay type: functional, cell-based
Endothelin-1 receptor = molecular target: T3, Endothelin-1 receptor (Homo sapiens, UniProt P25101)
T3 sequence (P25101 whole entry): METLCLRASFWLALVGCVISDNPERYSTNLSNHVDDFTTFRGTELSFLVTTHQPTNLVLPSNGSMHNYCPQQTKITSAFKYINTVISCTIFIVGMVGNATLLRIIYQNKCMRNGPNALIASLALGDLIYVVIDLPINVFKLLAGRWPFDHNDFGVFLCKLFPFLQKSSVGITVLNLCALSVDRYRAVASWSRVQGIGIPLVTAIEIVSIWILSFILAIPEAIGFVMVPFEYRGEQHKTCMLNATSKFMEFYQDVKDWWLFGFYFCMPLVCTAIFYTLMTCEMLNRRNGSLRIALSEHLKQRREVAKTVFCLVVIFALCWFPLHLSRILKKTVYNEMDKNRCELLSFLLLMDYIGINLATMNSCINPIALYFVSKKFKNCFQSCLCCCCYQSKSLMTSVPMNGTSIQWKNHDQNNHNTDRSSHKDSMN

Vasopressin V2 receptor = Vasopressin V2 receptor (Homo sapiens, UniProt P30518)
D(3) dopamine receptor = D(3) dopamine receptor (Homo sapiens, UniProt P35462)
[4] = molecular target: T4, Gamma-aminobutyric acid receptor subunit alpha-1 (Rattus norvegicus, UniProt P62813); assay type: functional
[5] = molecular target: Neuronal acetylcholine receptor subunit alpha-4 (Homo sapiens, UniProt P43681)
[6] = molecular target: T5, Alpha-1A adrenergic receptor (Homo sapiens, UniProt P35348); assay type: functional, cell-based
T5 sequence (P35348 whole entry): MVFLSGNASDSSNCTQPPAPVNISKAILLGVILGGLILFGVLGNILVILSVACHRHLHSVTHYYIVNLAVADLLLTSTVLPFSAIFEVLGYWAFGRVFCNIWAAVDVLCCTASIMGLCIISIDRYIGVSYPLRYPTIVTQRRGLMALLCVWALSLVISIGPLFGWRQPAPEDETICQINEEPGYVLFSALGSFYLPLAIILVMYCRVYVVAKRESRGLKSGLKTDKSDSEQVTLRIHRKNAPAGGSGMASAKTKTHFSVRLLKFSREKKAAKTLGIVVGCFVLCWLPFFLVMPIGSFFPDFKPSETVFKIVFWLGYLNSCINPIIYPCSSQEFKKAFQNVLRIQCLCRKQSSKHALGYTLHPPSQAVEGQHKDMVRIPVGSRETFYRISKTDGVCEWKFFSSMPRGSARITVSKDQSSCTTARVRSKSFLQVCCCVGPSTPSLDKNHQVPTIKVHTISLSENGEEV

[7] = molecular target: T6, 5-hydroxytryptamine receptor 1A (Homo sapiens, UniProt P08908); assay type: functional, cell-based
T6 sequence (P08908 whole entry): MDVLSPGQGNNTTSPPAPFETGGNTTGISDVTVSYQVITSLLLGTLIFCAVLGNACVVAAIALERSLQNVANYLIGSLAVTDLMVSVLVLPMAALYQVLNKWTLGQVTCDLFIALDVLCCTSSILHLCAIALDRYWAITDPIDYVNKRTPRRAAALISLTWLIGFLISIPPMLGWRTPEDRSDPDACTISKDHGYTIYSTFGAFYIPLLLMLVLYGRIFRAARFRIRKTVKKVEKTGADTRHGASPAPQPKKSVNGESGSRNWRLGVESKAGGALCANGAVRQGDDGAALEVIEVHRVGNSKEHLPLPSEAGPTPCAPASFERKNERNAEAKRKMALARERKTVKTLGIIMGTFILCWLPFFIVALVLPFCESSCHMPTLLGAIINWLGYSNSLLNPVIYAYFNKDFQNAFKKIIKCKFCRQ

[8] = molecular target: 5-hydroxytryptamine receptor 2B (Homo sapiens, UniProt P41595); assay type: functional, cell-based
[9] = molecular target: T4, Gamma-aminobutyric acid receptor subunit alpha-1
Also: assay procedure not described here.

Cannabinoid receptor 1, sequence (P21554 whole entry): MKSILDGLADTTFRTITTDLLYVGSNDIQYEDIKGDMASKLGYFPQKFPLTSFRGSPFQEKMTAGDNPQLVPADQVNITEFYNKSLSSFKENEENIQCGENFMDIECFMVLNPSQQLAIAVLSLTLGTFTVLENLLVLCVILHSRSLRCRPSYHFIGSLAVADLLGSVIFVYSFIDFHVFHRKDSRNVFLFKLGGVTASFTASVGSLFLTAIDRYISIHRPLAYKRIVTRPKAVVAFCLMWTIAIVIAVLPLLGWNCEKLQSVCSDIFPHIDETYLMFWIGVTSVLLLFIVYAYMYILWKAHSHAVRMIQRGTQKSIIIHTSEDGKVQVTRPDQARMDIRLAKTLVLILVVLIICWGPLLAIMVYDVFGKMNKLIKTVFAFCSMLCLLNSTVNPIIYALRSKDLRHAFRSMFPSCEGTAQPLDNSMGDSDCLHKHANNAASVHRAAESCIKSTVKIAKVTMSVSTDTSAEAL
Neuronal acetylcholine receptor subunit alpha-4, sequence (P43681 whole entry): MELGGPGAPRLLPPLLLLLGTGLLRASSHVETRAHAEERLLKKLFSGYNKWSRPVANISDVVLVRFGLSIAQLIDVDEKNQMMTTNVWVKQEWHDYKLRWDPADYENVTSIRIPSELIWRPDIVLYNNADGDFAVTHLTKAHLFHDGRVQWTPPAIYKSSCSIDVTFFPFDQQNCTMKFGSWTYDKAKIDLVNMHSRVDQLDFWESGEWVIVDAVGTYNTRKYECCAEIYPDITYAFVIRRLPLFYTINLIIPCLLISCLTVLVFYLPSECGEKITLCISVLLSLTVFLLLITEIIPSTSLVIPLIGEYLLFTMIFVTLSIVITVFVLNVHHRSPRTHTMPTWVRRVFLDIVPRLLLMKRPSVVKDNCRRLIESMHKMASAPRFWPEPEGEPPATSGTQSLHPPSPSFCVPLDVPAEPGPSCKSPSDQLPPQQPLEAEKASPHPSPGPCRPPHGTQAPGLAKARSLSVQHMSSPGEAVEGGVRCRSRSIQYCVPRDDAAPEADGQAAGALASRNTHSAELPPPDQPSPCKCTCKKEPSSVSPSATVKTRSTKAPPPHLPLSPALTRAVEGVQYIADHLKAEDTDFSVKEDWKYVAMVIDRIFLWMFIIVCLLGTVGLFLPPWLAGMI
5-hydroxytryptamine receptor 2B, sequence (P41595 whole entry): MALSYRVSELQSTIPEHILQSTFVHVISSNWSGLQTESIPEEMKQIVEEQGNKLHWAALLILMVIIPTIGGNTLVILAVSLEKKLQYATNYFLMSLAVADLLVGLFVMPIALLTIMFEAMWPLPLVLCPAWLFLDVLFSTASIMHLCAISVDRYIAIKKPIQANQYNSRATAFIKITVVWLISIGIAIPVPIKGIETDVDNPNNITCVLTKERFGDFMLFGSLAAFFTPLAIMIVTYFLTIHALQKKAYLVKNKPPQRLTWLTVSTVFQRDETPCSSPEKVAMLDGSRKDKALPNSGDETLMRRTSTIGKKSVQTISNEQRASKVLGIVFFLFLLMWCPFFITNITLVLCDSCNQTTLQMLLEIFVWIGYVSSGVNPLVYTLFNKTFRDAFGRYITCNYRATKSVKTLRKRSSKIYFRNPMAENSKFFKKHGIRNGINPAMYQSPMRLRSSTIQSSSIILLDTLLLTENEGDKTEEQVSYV
Kappa-type opioid receptor, sequence (P41145 whole entry): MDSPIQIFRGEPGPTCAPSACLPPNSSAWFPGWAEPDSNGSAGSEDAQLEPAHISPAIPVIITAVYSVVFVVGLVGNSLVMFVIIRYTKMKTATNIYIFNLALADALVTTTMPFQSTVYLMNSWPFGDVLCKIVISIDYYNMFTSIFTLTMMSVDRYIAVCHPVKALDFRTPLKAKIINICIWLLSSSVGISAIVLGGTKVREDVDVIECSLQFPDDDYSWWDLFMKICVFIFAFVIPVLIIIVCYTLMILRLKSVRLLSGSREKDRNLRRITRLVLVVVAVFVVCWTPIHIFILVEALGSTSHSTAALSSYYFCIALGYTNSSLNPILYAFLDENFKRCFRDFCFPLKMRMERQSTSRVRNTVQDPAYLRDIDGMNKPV
D(3) dopamine receptor, sequence (P35462 whole entry): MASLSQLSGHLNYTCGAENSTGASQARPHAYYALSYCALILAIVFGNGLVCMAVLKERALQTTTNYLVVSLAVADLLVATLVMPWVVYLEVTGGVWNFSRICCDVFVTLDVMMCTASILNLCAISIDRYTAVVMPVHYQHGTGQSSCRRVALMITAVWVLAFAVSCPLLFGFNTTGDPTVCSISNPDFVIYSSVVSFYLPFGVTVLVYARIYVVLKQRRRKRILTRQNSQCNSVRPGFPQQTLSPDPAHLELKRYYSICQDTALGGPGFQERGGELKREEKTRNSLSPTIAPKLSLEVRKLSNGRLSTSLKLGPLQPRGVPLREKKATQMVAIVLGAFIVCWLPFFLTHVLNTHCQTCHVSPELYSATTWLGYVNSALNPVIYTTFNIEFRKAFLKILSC
T4 sequence (P62813 whole entry): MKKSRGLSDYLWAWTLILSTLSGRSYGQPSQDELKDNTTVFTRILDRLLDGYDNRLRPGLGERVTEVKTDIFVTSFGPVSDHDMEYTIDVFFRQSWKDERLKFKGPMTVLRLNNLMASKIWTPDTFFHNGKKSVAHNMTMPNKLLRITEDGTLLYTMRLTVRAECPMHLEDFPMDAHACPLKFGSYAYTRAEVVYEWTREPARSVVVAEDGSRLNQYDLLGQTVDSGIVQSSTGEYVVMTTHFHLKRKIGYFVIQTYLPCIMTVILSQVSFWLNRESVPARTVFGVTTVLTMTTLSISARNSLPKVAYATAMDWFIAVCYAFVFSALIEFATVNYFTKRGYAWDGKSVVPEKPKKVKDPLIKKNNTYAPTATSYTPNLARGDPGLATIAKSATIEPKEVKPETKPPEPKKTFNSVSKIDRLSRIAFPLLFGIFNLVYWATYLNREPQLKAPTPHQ
Vasopressin V2 receptor, sequence (P30518 whole entry): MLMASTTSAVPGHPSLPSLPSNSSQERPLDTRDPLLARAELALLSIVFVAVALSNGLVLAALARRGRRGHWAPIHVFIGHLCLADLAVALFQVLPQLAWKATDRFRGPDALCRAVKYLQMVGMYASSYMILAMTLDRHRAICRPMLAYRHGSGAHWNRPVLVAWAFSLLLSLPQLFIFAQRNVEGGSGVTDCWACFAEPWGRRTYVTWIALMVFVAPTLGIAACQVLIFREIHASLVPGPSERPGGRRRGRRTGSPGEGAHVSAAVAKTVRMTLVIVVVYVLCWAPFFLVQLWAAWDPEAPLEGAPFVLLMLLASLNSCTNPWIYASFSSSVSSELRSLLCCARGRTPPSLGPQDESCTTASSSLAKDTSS

Row | SMILES | AC50 [1] [µM] | AC50 [2] [µM] | AC50 [3] [µM] | AC50 (Cannabinoid receptor 1) [µM] | AC50 (Endothelin-1 receptor) [µM] | AC50 (Vasopressin V2 receptor) [µM] | AC50 (D(3) dopamine receptor) [µM] | AC50 [4] [µM] | AC50 [5] [µM] | AC50 [6] [µM] | AC50 [7] [µM] | AC50 [8] [µM] | AC50 [9] [µM]
1 | Nc1nc2ccc(OC(F)(F)F)cc2s1 [RILUZOLE] | > 30 | > 30 | > 30 | > 30 | > 30 | > 30 | > 30 | > 30 | > 30 | > 30 | > 30 | > 30 | 
2 | NC(=O)C[S+]([O-])C(c1ccccc1)c1ccccc1 (centres undefined) [MODAFINIL] | > 10 | > 10 | > 30 | > 30 | > 30 | > 30 | > 10 | > 10 | > 10 | > 30 | > 10 | > 10 | > 10
3 | CC(=O)O[C@@]12CO[C@@H]1C[C@H](O)[C@@]1(C)C(=O)[C@H](O)C3=C(C)[C@@H](OC(=O)[C@H](O)[C@@H](NC(=O)OC(C)(C)C)c4ccccc4)C[C@@](O)([C@@H](OC(=O)c4ccccc4)[C@H]21)C3(C)C [DOCETAXEL ANHYDROUS] | > 30 | > 30 | 19.2 |  |  | > 30 | > 30 | > 30 | > 30 |  | > 30 | > 30 | > 30
4 | CCNC(C)Cc1cccc(C(F)(F)F)c1 (centres undefined) [FENFLURAMINE] |  | 13.4 | > 30 | > 30 | > 30 | > 30 | 8 | > 10 | > 10 |  |  |  | > 10
5 | COc1c(N2CCNC(C)C2)c(F)cc2c(=O)c(C(=O)O)cn(C3CC3)c12 (centres undefined) [GATIFLOXACIN] | > 10 | > 10 |  |  |  | > 10 | > 30 | > 10 | > 10 |  | > 10 | > 10 | > 10
6 | CCCOc1ccc(C(=O)OCCN(CC)CC)cc1N [PROPARACAINE] | > 30 | > 30 | > 30 | > 30 | > 30 | > 30 | > 30 | > 30 | > 30 | > 30 | > 30 | > 30 | 
7 | C#CCN(C)[C@H](C)Cc1ccccc1 [SELEGILINE] | 2.9 | 7.8 |  | > 30 |  | > 10 | > 30 | > 10 | > 10 | > 30 | > 10 | > 10 | > 10
8 | CCN(CC)CCOC(=O)c1ccc(N)cc1 [PROCAINE] | > 10 | > 10 | > 30 | > 30 |  | > 30 | > 30 | > 10 | > 10 | > 30 | > 30 | > 10 | > 10
9 | Cc1cccc(C)c1NC(=O)C1CCCCN1C (centres undefined) [MEPIVACAINE] | > 30 | > 30 | > 30 | > 30 | > 30 | > 30 | > 30 | > 30 | > 30 | > 30 | > 30 | > 30 | 
10 | CC[C@]1(O)C[C@@H]2CN(CCc3c([nH]c4ccccc34)[C@@](C(=O)OC)(c3cc4c(cc3OC)N(C)[C@H]3[C@@](O)(C(N)=O)[C@H](O)[C@]5(CC)C=CCN6CC[C@]43[C@@H]65)C2)C1 [VINDESINE] | > 30 | > 30 | > 30 |  | > 30 | > 30 | > 30 | > 30 | > 30 | > 30 | > 30 | > 30 | > 30
11 | COc1ccccc1OCC(O)COC(N)=O (centres undefined) [METHOCARBAMOL] | > 10 | > 10 |  |  |  | > 10 | > 30 | > 10 | > 10 |  | > 10 | > 10 | > 10
12 | CCN1CCC[C@H]1CNC(=O)c1cc(S(N)(=O)=O)ccc1OC [LEVOSULPIRIDE] |  | > 10 | > 30 | > 30 |  | > 30 |  | > 10 | > 10 | > 30 | > 30 | > 10 | > 10
13 | CCCCN1CCCCC1C(=O)Nc1c(C)cccc1C (centres undefined) [BUPIVACAINE] | > 30 | > 30 | > 30 | > 30 | > 30 | > 30 | > 30 | > 30 | > 30 |  | > 30 | > 30 | > 30
14 | CC(C)c1c(C(=O)Nc2ccccc2)c(-c2ccccc2)c(-c2ccc(F)cc2)n1CC[C@@H](O)C[C@@H](O)CC(=O)O [ATORVASTATIN] | > 10 | > 10 | > 30 | > 30 | > 30 | > 30 | > 30 | > 10 | > 10 | > 30 | > 10 |  | > 10
15 | CN[C@@H]1[C@H](O)[C@H](NC)[C@H]2O[C@@]3(O)C(=O)C[C@@H](C)O[C@H]3O[C@@H]2[C@H]1O [SPECTINOMYCIN] | > 10 | > 10 |  |  |  | > 10 | > 30 | > 10 | > 10 |  | > 30 | > 30 | > 10
